This note sets out measurements from ChEMBL document CHEMBL1137831, “Synthesis and antibacterial activity of some aryloxy/thioaryloxy oxazolidinone derivatives” (2004).

In test [1] the test system is Staphylococcus epidermidis. Description: Minimal inhibitory concentration against Staphylococcus epidermidis ATCC 12228. The test is classed as functional.
For test [2], the system named is Staphylococcus aureus. The test is described as follows: Minimal inhibitory concentration against Staphylococcus aureus ATCC 25923. The test is classed as functional.
A further test relates to Serratia marcescens. The test is described as follows: Minimal inhibitory concentration against Serratia marcescens ATCC 12999. The test is classed as functional.
The test system of test [3] is Staphylococcus aureus. Description: Minimal inhibitory concentration against methicillin resistant Staphylococcus aureus ST450. The test is classed as functional.
A further test deals with Enterococcus faecium. The test is described as follows: Minimal inhibitory concentration against Enterococcus faecium 6A-VRE. The test is classed as functional.
The test system of a further test is Enterococcus durans. The test is described as follows: Minimal inhibitory concentration against Enterococcus durans ATCC 581. The test is classed as functional.
For test [4], the system named is Enterococcus faecalis. Description: Minimal inhibitory concentration against Enterococcus faecalis ATCC 29212. The test is classed as functional.
For a further test, the system named is Salmonella typhi. Description: Minimal inhibitory concentration against Salmonella typhi (MDR) ICH 098. The test is classed as functional, Salmonella enterica subsp. enterica serovar Typhi. To be noted: Salmonella enterica.
For a further test, the system named is Bacillus cereus. The test is described as follows: Minimal inhibitory concentration against Bacillus cereus. The test is classed as functional.
The subject of test [5] is Enterococcus faecalis. Description: Minimal inhibitory concentration against Enterococcus faecalis (VRE) ATCC 346-VRE. The test is classed as functional.
For a further test, the system named is Klebsiella pneumoniae. Description: Minimal inhibitory concentration against Klebsiella pneumoniae ATCC 15380. The test is classed as functional.
Test [6] deals with Salmonella enterica subsp. enterica serovar Abony. Description: Minimal inhibitory concentration against Salmonella abony NCTC 6017. The test is classed as functional.
The next test deals with Pseudomonas aeruginosa. The test is described as follows: Minimal inhibitory concentration against Pseudomonas aeruginosa ATCC 27853. The test is classed as functional.
Test [7] concerns Staphylococcus epidermidis. The test is described as follows: Minimal inhibitory concentration against methicillin resistant Staphylococcus epidermidis ATCC 23760. The test is classed as functional.
Another test concerns Escherichia coli. Description: Minimal inhibitory concentration against Escherichia coli ATCC 25922. The test is classed as functional.
The test system of test [8] is Staphylococcus aureus. The test is described as follows: Minimal inhibitory concentration against methicillin resistant Staphylococcus aureus ST450; value ranges from 2-4 ug/mL. The test is classed as functional.
Test [9] concerns Staphylococcus aureus. Description: Minimal inhibitory concentration against methicillin resistant Staphylococcus aureus ST450; value ranges from 4-8 ug/mL. The test is classed as functional.

≈ marks a conversion by molar mass, not a printed value.

For orientation: MIC means the lowest concentration found to suppress growth. Read a high MIC as a less susceptible organism. On to `CC(=O)Nc1ccc(Sc2ccc(N3C[C@H](C/N=C(/S)NC4CC4)OC3=O)cc2F)cc1`, for which the MIC in [1] was 8 µg/mL (≈ 16.9 µM); against Staphylococcus aureus [2], 16 µg/mL (≈ 33.7 µM); against Serratia marcescens, greater than 16 µg/mL; in the test with Staphylococcus aureus [3] it was 16 µg/mL (≈ 33.7 µM); in the test on Enterococcus faecium, 8 µg/mL (≈ 16.9 µM); against Enterococcus durans it was 8 µg/mL (≈ 16.9 µM). In addition, the MIC against Enterococcus faecalis [4] was 8 µg/mL (≈ 16.9 µM); in the test on Salmonella typhi it was greater than 16 µg/mL; in the test on Bacillus cereus, greater than 16 µg/mL; with Enterococcus faecalis [5], greater than 16 µg/mL; in the test with Klebsiella pneumoniae, greater than 16 µg/mL; in test [6], greater than 16 µg/mL. The values for the MIC (against Pseudomonas aeruginosa; in test [7]; against Escherichia coli) were greater than 16 µg/mL, 8 µg/mL (≈ 16.9 µM) and greater than 16 µg/mL, respectively.
For the compound `CC(=O)NC[C@H]1CN(c2ccc(Oc3ccc(NC(C)=O)cc3)c(F)c2)C(=O)O1`, the MIC in test [1] was 2 µg/mL (≈ 4.98 µM); in the test on Staphylococcus aureus [2] it was 2 µg/mL (≈ 4.98 µM); with Serratia marcescens it was greater than 16 µg/mL; against Staphylococcus aureus [8], 4 µg/mL (≈ 9.97 µM); in the test on Enterococcus faecium it was 4 µg/mL (≈ 9.97 µM); in the test with Enterococcus durans it was 4 µg/mL (≈ 9.97 µM). For the same compound, the MIC against Enterococcus faecalis [4] is 4 µg/mL (≈ 9.97 µM); against Salmonella typhi it was greater than 16 µg/mL; in the test on Bacillus cereus it was greater than 16 µg/mL; in the test with Enterococcus faecalis [5] it was 4 µg/mL (≈ 9.97 µM); in the test with Klebsiella pneumoniae it was greater than 16 µg/mL; in test [6], greater than 16 µg/mL. Further, the MIC against Pseudomonas aeruginosa is greater than 16 µg/mL; in [7], 4 µg/mL (≈ 9.97 µM); in the test on Escherichia coli, greater than 16 µg/mL.
In the case of `CC(=O)NC[C@H]1CN(c2ccc(Oc3ccccc3NC(C)=O)c(F)c2)C(=O)O1`, the MIC (in [1]; against Staphylococcus aureus [2]; with Serratia marcescens; in the test on Staphylococcus aureus [3]; in the test with Enterococcus faecium; in the test with Enterococcus durans) was greater than 16 µg/mL throughout. Also, the MIC (in the test with Enterococcus faecalis [4]; in the test with Salmonella typhi; in the test on Bacillus cereus; in the test on Enterococcus faecalis [5]; against Klebsiella pneumoniae; in test [6]) was greater than 16 µg/mL in each case. Moreover, the MIC (with Pseudomonas aeruginosa; in [7]; in the test with Escherichia coli) was greater than 16 µg/mL throughout.
As for `CC(=O)Nc1ccc(Sc2ccc(N3C[C@H](C/N=C(/S)NN)OC3=O)cc2F)cc1`, the minimum inhibitory concentration (MIC) in test [1] was 4 µg/mL (≈ 8.9 µM); in the test on Staphylococcus aureus [2], 4 µg/mL (≈ 8.9 µM); in the test with Serratia marcescens, greater than 16 µg/mL; in the test with Enterococcus faecium it was 16 µg/mL (≈ 35.6 µM); in the test with Enterococcus durans it was 8 µg/mL (≈ 17.8 µM); against Enterococcus faecalis [4] it was 4 µg/mL (≈ 8.9 µM). The MIC in the test on Salmonella typhi was greater than 16 µg/mL; in the test on Bacillus cereus, greater than 16 µg/mL; in the test with Staphylococcus aureus [9], 8 µg/mL (≈ 17.8 µM); in the test on Enterococcus faecalis [5] it was 8 µg/mL (≈ 17.8 µM); in the test on Klebsiella pneumoniae it was greater than 16 µg/mL; in [6], greater than 16 µg/mL. For the same compound, the MIC in the test with Pseudomonas aeruginosa was greater than 16 µg/mL; in test [7], 4 µg/mL (≈ 8.9 µM); in the test on Escherichia coli, greater than 16 µg/mL.
As for `CO/C(S)=N\C[C@H]1CN(c2ccc(Oc3ccc(NC(C)=O)cc3)c(F)c2)C(=O)O1`, the MIC in test [1] is 8 µg/mL (≈ 18.5 µM); against Staphylococcus aureus [2], 8 µg/mL (≈ 18.5 µM); in the test on Serratia marcescens it was greater than 16 µg/mL; against Staphylococcus aureus [3], 16 µg/mL (≈ 36.9 µM); in the test with Enterococcus faecium it was 16 µg/mL (≈ 36.9 µM); with Enterococcus durans, 8 µg/mL (≈ 18.5 µM). Further, the minimum inhibitory concentration (MIC) was 8 µg/mL (≈ 18.5 µM) with Enterococcus faecalis [4]; greater than 16 µg/mL against Salmonella typhi; greater than 16 µg/mL against Bacillus cereus; 8 µg/mL (≈ 18.5 µM) against Enterococcus faecalis [5]; greater than 16 µg/mL in the test on Klebsiella pneumoniae; greater than 16 µg/mL in test [6]. The MIC is greater than 16 µg/mL against Pseudomonas aeruginosa, 16 µg/mL (≈ 36.9 µM) in test [7] and greater than 16 µg/mL with Escherichia coli.
Take `CC(=O)Nc1ccc(Oc2ccc(N3C[C@H](C/N=C(\N)S)OC3=O)cc2F)cc1`: the MIC in test [1] is 2 µg/mL (≈ 4.78 µM); in the test on Staphylococcus aureus [2], 2 µg/mL (≈ 4.78 µM); against Serratia marcescens, greater than 16 µg/mL; in the test on Staphylococcus aureus [8], 4 µg/mL (≈ 9.56 µM); with Enterococcus faecium, 4 µg/mL (≈ 9.56 µM); in the test on Enterococcus durans it was 2 µg/mL (≈ 4.78 µM). Besides, the MIC with Enterococcus faecalis [4] is 4 µg/mL (≈ 9.56 µM); in the test with Salmonella typhi, greater than 16 µg/mL; with Bacillus cereus it was greater than 16 µg/mL; with Enterococcus faecalis [5] it was 4 µg/mL (≈ 9.56 µM); against Klebsiella pneumoniae it was greater than 16 µg/mL; in test [6] it was greater than 16 µg/mL. In addition, the MIC against Pseudomonas aeruginosa was greater than 16 µg/mL; in test [7] it was 4 µg/mL (≈ 9.56 µM); in the test with Escherichia coli it was greater than 16 µg/mL.
Take `CC(=O)NC[C@H]1CN(c2ccc(Oc3cccc(NC(C)=O)c3)c(F)c2)C(=O)O1`: the MIC (in test [1]; with Staphylococcus aureus [2]; against Serratia marcescens; with Staphylococcus aureus [3]; in the test on Enterococcus faecium; with Enterococcus durans) was greater than 16 µg/mL throughout. Moreover, the MIC (against Enterococcus faecalis [4]; with Salmonella typhi; with Bacillus cereus; in the test with Enterococcus faecalis [5]; in the test with Klebsiella pneumoniae; in [6]) was greater than 16 µg/mL in each case. Besides, the MIC (against Pseudomonas aeruginosa; in [7]; against Escherichia coli) was greater than 16 µg/mL throughout.
Consider `CC(=O)Nc1ccc(Oc2ccc(N3C[C@H](C/N=C(/S)N(C)C)OC3=O)cc2F)cc1`, for which the MIC in test [1] was 16 µg/mL (≈ 35.8 µM); in the test with Staphylococcus aureus [2], 16 µg/mL (≈ 35.8 µM); against Serratia marcescens, greater than 16 µg/mL; in the test with Staphylococcus aureus [3], 16 µg/mL (≈ 35.8 µM); with Enterococcus faecium, greater than 16 µg/mL; against Enterococcus durans, 16 µg/mL (≈ 35.8 µM). In addition, the MIC against Enterococcus faecalis [4] was 16 µg/mL (≈ 35.8 µM); in the test with Salmonella typhi it was greater than 16 µg/mL; with Bacillus cereus, greater than 16 µg/mL; with Enterococcus faecalis [5], 16 µg/mL (≈ 35.8 µM); against Klebsiella pneumoniae, greater than 16 µg/mL; in [6] it was greater than 16 µg/mL. In addition, the MIC against Pseudomonas aeruginosa was greater than 16 µg/mL; in test [7] it was 16 µg/mL (≈ 35.8 µM); in the test on Escherichia coli, greater than 16 µg/mL.
For the compound `CC(=O)Nc1ccc(Oc2ccc(N3C[C@H](C/N=C(/S)NC4CC4)OC3=O)cc2F)cc1`, the MIC in test [1] is 16 µg/mL (≈ 34.9 µM); with Staphylococcus aureus [2] it was greater than 16 µg/mL; in the test with Serratia marcescens, greater than 16 µg/mL; against Staphylococcus aureus [3], 16 µg/mL (≈ 34.9 µM); against Enterococcus faecium it was greater than 16 µg/mL; against Enterococcus durans it was 16 µg/mL (≈ 34.9 µM). Moreover, the MIC in the test on Enterococcus faecalis [4] was 8 µg/mL (≈ 17.4 µM); against Salmonella typhi, greater than 16 µg/mL; in the test with Bacillus cereus it was greater than 16 µg/mL; against Enterococcus faecalis [5], 16 µg/mL (≈ 34.9 µM); against Klebsiella pneumoniae, greater than 16 µg/mL; in [6], greater than 16 µg/mL. The figures for the MIC (against Pseudomonas aeruginosa; in test [7]; in the test on Escherichia coli) were greater than 16 µg/mL, 16 µg/mL (≈ 34.9 µM) and greater than 16 µg/mL, respectively.
In the case of `CC(=O)Nc1ccc(Sc2ccc(N3C[C@H](C/N=C(/S)N(C)C)OC3=O)cc2F)cc1`, the MIC is 16 µg/mL (≈ 34.6 µM) in [1]; 16 µg/mL (≈ 34.6 µM) against Staphylococcus aureus [2]; greater than 16 µg/mL in the test with Serratia marcescens; greater than 16 µg/mL in the test on Staphylococcus aureus [3]; greater than 16 µg/mL against Enterococcus faecium; 16 µg/mL (≈ 34.6 µM) with Enterococcus durans. Moreover, the MIC in the test with Enterococcus faecalis [4] was 8 µg/mL (≈ 17.3 µM); with Salmonella typhi, greater than 16 µg/mL; against Bacillus cereus it was greater than 16 µg/mL; against Enterococcus faecalis [5], 16 µg/mL (≈ 34.6 µM); in the test with Klebsiella pneumoniae, greater than 16 µg/mL; in test [6] it was greater than 16 µg/mL. Further, the MIC is greater than 16 µg/mL in the test on Pseudomonas aeruginosa, 16 µg/mL (≈ 34.6 µM) in test [7] and greater than 16 µg/mL in the test with Escherichia coli.
As to `CC(=O)NC[C@H]1CN(c2ccc(N3CCOCC3)c(F)c2)C(=O)O1` [LINEZOLID], the MIC in test [1] is 2 µg/mL (≈ 5.93 µM); with Serratia marcescens, greater than 16 µg/mL; in the test with Enterococcus faecium, 2 µg/mL (≈ 5.93 µM); with Enterococcus durans, 2 µg/mL (≈ 5.93 µM); in the test on Salmonella typhi, greater than 16 µg/mL; in the test with Bacillus cereus, greater than 16 µg/mL. Besides, the MIC with Klebsiella pneumoniae was greater than 16 µg/mL; in test [6], greater than 16 µg/mL; in the test with Pseudomonas aeruginosa, greater than 16 µg/mL; in test [7], 2 µg/mL (≈ 5.93 µM); against Escherichia coli it was greater than 16 µg/mL.
